Test results: ChEMBL document CHEMBL3085711, “Phosphorus-nitrogen compounds part 27. Syntheses, structural characterizations, antimicrobial and cytotoxic activities, and DNA interactions of new phosphazenes bearing secondary amino and pendant (4-fluorobenzyl)spiro groups” (2013)
≈ marks a conversion by molar mass, not a printed value. Calls of active or inactive are those of the source. The calls are words filed in the database; no cut-off is given here.

How the values were obtained:
[1] = tested on: Candida albicans; assay: Antifungal activity against Candida albicans ATCC 10231 at 50 ug after 72 hrs by disk diffusion method; format: functional; conditions: ATCC 10231, 72 h, read-out: DIZ
[2] = tested on: Candida tropicalis; assay: Antifungal activity against Candida tropicalis ATCC 13803 at 50 ug after 72 hrs by disk diffusion method; format: functional; conditions: ATCC 13803, 72 h, read-out: DIZ
[3] = tested on: Candida albicans; assay: Antifungal activity against Candida albicans ATCC 10231 at 0.25 mM after 72 hrs by disk diffusion method; format: functional; conditions: ATCC 10231, 72 h, read-out: DIZ
[4] = tested on: Candida tropicalis; assay: Antifungal activity against Candida tropicalis ATCC 13803 at 0.25 mM after 72 hrs by disk diffusion method; format: functional; conditions: ATCC 13803, 72 h, read-out: DIZ
[5] = tested on: HeLa; assay: Cytotoxicity against human HeLa cells assessed as decrease in cell viability at 10 to 50 ug/ml after 24 hrs by MTT assay relative to control; format: functional, cell-based
[6] = tested on: HeLa; assay: Cytotoxicity against human HeLa cells assessed as decrease in cell viability after 24 hrs by MTT assay; format: functional, cell-based
[7] = tested on: Escherichia coli; assay: Binding affinity to Escherichia coli pBR322 G/GATCC DNA assessed as DNA strand cleavage at 625 to 2500 uM preincubated for 24 hrs prior to BamHI treatment measured after 1 hr by agarose gel electrophoresis
[8] = tested on: Escherichia coli; assay: Binding affinity to Escherichia coli pBR322 DNA assessed as DNA strand cleavage at 156 to 2500 uM after 24 hrs by agarose gel electrophoresis
[9] = tested on: Candida albicans; assay: Antifungal activity against Candida albicans ATCC 10231; format: functional
[10] = tested on: Candida tropicalis; assay: Antifungal activity against Candida tropicalis ATCC 13803; format: functional
[11] = tested on: HeLa; assay: Cytotoxicity against human HeLa cells assessed as decrease in cell viability at 5 to 50 ug/ml after 24 hrs by MTT assay relative to control; format: functional
[12] = tested on: Escherichia coli; assay: Binding affinity to Escherichia coli pBR322 A/AGCTT DNA assessed as DNA strand cleavage at 625 to 2500 uM preincubated for 24 hrs prior to HindIII treatment measured after 1 hr by agarose gel electrophoresis
[13] = tested on: HeLa; assay: Cytotoxicity against human HeLa cells assessed as decrease in cell survival at 10 ug/ml after 48 hrs by trypan blue exclusion assay; format: functional, cell-based
[14] = tested on: HeLa; assay: Induction of apoptosis in human HeLa cells assessed as change in cellular morphology at 25 uM after 24 hrs by propidium iodide staining-based fluorescence microscopic analysis; format: functional, cell-based
[15] = tested on: HeLa; assay: Induction of apoptosis in human HeLa cells assessed as loss of mitochondrial membrane potential at 25 uM after 24 hrs by DiOC6 staining-based fluorescence microscopic analysis; format: functional, cell-based
[16] = tested on: HeLa; assay: Induction of apoptosis in human HeLa cells at 25 uM after 48 to 72 hrs by DAPI staining-based fluorescence microscopic analysis; format: functional, cell-based
[17] = tested on: Bacillus subtilis; assay: Antibacterial activity against Bacillus subtilis at 10 ug after 24 hrs by disk diffusion method; format: functional; conditions: read-out: DIZ
[18] = tested on: Bacillus cereus; assay: Antibacterial activity against Bacillus cereus at 10 ug after 24 hrs by disk diffusion method; format: functional; conditions: read-out: DIZ
[19] = tested on: Bacillus subtilis; assay: Antibacterial activity against Bacillus subtilis at 0.25 mM after 24 hrs by disk diffusion method; format: functional; conditions: read-out: DIZ
[20] = tested on: HeLa; assay: Cytotoxicity against human HeLa cells assessed as decrease in cell viability at 5 ug/ml after 24 hrs by MTT assay relative to control; format: functional, cell-based
[21] = tested on: Bacillus subtilis; assay: Antibacterial activity against Bacillus subtilis; format: functional
[22] = tested on: Bacillus subtilis; assay: Antibacterial activity against Bacillus subtilis at 30 ug after 24 hrs by disk diffusion method; format: functional; conditions: read-out: DIZ
[23] = tested on: Bacillus cereus; assay: Antibacterial activity against Bacillus cereus at 30 ug after 24 hrs by disk diffusion method; format: functional; conditions: read-out: DIZ
[24] = tested on: Bacillus cereus; assay: Antibacterial activity against Bacillus cereus at 0.25 mM after 24 hrs by disk diffusion method; format: functional; conditions: read-out: DIZ
[25] = tested on: Bacillus cereus; assay: Antibacterial activity against Bacillus cereus; format: functional

SMILES: CC(=O)N1CCN(c2ccc(OCC3COC(Cn4ccnc4)(c4ccc(Cl)cc4Cl)O3)cc2)CC1 (centres undefined) [KETOCONAZOLE]
- zone of inhibition at 50 µg/disc [1]: 29 mm
- zone of inhibition at 50 µg/disc [2]: 29 mm

SMILES: CN1CCCN(Cc2ccc(F)cc2)P12=NP(N1CCCCC1)(N1CCCCC1)=NP(N1CCCCC1)(N1CCCCC1)=N2 (centres undefined)
- zone of inhibition at 250 µM [3]: 18.3 mm
- zone of inhibition at 250 µM [4]: 20 mm
- Activity [5]: Active
- Activity [6]: Dose-dependent effect
- Activity [7]: Active
- Activity [8]: Active
- MIC [9]: 9.8 µM (≈ 6.52 µg/mL)
- MIC [10]: 19.5 µM (≈ 13 µg/mL)

SMILES: CCN1CCN(Cc2ccc(F)cc2)P12=NP(N1CCOCC1)(N1CCOCC1)=NP(N1CCOCC1)(N1CCOCC1)=N2 (centres undefined)
- Activity [11]: inactive
- Activity [12]: Active
- Activity [8]: Active

SMILES: CN1CCN(Cc2ccc(F)cc2)P12=NP(N1CCC3(CC1)OCCO3)(N1CCC3(CC1)OCCO3)=NP(N1CCC3(CC1)OCCO3)(N1CCC3(CC1)OCCO3)=N2 (centres undefined)
- Activity [11]: inactive
- Activity [13]: Active
- Activity [14]: inactive
- Activity [15]: Active
- Activity [16]: Active
- Activity [7]: Active
- Activity [8]: Active

SMILES: CN1CCCN(Cc2ccc(F)cc2)P12=NP(N1CCC3(CC1)OCCO3)(N1CCC3(CC1)OCCO3)=NP(N1CCC3(CC1)OCCO3)(N1CCC3(CC1)OCCO3)=N2 (centres undefined)
- Activity [11]: 49%
- Activity [13]: Active
- Activity [14]: inactive
- Activity [15]: Active
- Activity [16]: Active
- Activity [7]: Active
- Activity [8]: Active

SMILES: CN1CCN(Cc2ccc(F)cc2)P12=NP(N1CCCCC1)(N1CCCCC1)=NP(N1CCCCC1)(N1CCCCC1)=N2 (centres undefined)
- zone of inhibition at 250 µM [3]: 13.6 mm
- zone of inhibition at 250 µM [4]: 17.3 mm
- Activity [6]: Dose-dependent effect
- Activity [7]: Active
- Activity [8]: Active
- MIC [9]: 156 µM (≈ 102 µg/mL)
- MIC [10]: 156 µM (≈ 102 µg/mL)

SMILES: CN1CCN(Cc2ccc(F)cc2)P12=NP(N1CCOCC1)(N1CCOCC1)=NP(N1CCOCC1)(N1CCOCC1)=N2 (centres undefined)
- Activity [11]: inactive
- Activity [12]: Active
- Activity [8]: Active

SMILES: CCN1CCN(Cc2ccc(F)cc2)P12=NP(N1CCC3(CC1)OCCO3)(N1CCC3(CC1)OCCO3)=NP(N1CCC3(CC1)OCCO3)(N1CCC3(CC1)OCCO3)=N2 (centres undefined)
- Activity [11]: inactive
- Activity [7]: Active
- Activity [8]: Active

SMILES: CC1(C)S[C@@H]2[C@H](NC(=O)[C@H](N)c3ccccc3)C(=O)N2[C@H]1C(=O)O [AMPICILLIN]
- zone of inhibition at 10 µg/disc [17]: 30.3 mm
- zone of inhibition at 10 µg/disc [18]: 26.3 mm

SMILES: CCN1CCN(Cc2ccc(F)cc2)P12=NP(N1CCCC1)(N1CCCC1)=NP(N1CCCC1)(N1CCCC1)=N2 (centres undefined)
- zone of inhibition at 250 µM [19]: 11.5 mm
- Activity [20]: Active
- Activity [6]: Dose-dependent effect
- Activity [7]: Active
- Activity [8]: Active
- MIC [21]: 9.8 µM (≈ 5.97 µg/mL)

SMILES: O=C(N[C@H](CO)[C@H](O)c1ccc([N+](=O)[O-])cc1)C(Cl)Cl [CHLORAMPHENICOL]
- zone of inhibition at 30 µg/disc [22]: 31 mm
- zone of inhibition at 30 µg/disc [23]: 26 mm

SMILES: CC(=O)O[C@H]1C(=O)[C@@]2(C)[C@H]([C@H](OC(=O)c3ccccc3)[C@]3(O)C[C@H](OC(=O)[C@H](O)[C@@H](NC(=O)c4ccccc4)c4ccccc4)C(C)=C1C3(C)C)[C@]1(OC(C)=O)CO[C@@H]1C[C@@H]2O
- Activity [11]: Active
- Activity [6]: Dose-dependent effect

SMILES: CN1CCN(Cc2ccc(F)cc2)P12=NP(N1CCCC1)(N1CCCC1)=NP(N1CCCC1)(N1CCCC1)=N2 (centres undefined)
- zone of inhibition at 250 µM [19]: 12.3 mm
- Activity [6]: Dose-dependent effect
- Activity [7]: Active
- Activity [8]: Active
- MIC [21]: 9.8 µM (≈ 5.84 µg/mL)

SMILES: CCN1CCN(Cc2ccc(F)cc2)P12=NP(N1CCCCC1)(N1CCCCC1)=NP(N1CCCCC1)(N1CCCCC1)=N2 (centres undefined)
- zone of inhibition at 250 µM [3]: 12.3 mm
- zone of inhibition at 250 µM [4]: 17.3 mm
- zone of inhibition at 250 µM [19]: 10.7 mm
- Activity [6]: Dose-dependent effect
- Activity [7]: Active
- Activity [8]: Active
- MIC [9]: 625 µM (≈ 416 µg/mL)
- MIC [21]: 156 µM (≈ 104 µg/mL)
- MIC [10]: 19.5 µM (≈ 13 µg/mL)

SMILES: CN1CCCN(Cc2ccc(F)cc2)P12=NP(N1CCCC1)(N1CCCC1)=NP(N1CCCC1)(N1CCCC1)=N2 (centres undefined)
- zone of inhibition at 250 µM [19]: 16.5 mm
- Activity [11]: 50%
- Activity [6]: Dose-dependent effect
- zone of inhibition at 250 µM [24]: 12.6 mm
- Activity [7]: Active
- Activity [8]: Active
- MIC [21]: 9.8 µM (≈ 5.97 µg/mL)
- MIC [25]: 156 µM (≈ 95.3 µg/mL)

SMILES: CN1CCCN(Cc2ccc(F)cc2)P12=NP(N1CCOCC1)(N1CCOCC1)=NP(N1CCOCC1)(N1CCOCC1)=N2 (centres undefined)
- Activity [11]: 58%
- Activity [14]: inactive
- Activity [15]: Active
- Activity [12]: Active
- Activity [8]: Active
